Experimental data: patent US20070191374A1, “Substituted cinnolin-4-ylamines” (Neurogen Coroperation, priority 2004, published 2007)

Legend:
[1] = biological target: VR (Homo sapiens, UniProt Q8NER1); conditions: typical value, background section; read-out: K; value (binds to VR); cited from earlier work
[2] = biological target: T1, human capsaicin receptor (Homo sapiens, UniProt Q8NER1); experiment: Calcium mobilization assay; format: cell-based; conditions: cells expressing human capsaicin receptor, FLUO-3 fluorescence; positive control in agonist assay; read-out: approximate EC90 concentration
T1 construct: pBK-CMV expression construct encoding the full length human capsaicin receptor; expressed in transfected cells
T1 sequence (Q8NER1 whole entry): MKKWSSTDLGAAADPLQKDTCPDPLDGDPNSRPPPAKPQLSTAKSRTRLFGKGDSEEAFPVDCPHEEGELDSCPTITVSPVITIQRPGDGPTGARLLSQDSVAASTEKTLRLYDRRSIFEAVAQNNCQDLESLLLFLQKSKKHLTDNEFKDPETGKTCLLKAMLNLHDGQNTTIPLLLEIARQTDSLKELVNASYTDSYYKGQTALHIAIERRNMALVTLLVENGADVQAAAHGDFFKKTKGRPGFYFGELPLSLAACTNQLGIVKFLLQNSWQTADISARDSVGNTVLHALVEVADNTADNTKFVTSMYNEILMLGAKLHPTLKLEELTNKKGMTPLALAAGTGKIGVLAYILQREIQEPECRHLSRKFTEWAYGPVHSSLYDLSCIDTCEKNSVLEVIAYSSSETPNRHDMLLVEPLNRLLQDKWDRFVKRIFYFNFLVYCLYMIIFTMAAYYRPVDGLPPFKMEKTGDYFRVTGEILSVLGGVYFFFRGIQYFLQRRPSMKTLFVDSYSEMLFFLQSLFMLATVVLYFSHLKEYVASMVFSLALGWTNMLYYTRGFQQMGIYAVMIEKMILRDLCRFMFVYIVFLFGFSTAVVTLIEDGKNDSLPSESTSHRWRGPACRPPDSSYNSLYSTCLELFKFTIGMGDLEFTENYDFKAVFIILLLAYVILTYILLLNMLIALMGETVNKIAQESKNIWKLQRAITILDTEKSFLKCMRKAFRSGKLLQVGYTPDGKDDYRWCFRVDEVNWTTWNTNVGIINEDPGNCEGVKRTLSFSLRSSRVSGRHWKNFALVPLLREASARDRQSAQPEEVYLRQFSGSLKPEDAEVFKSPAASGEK
Method: This Example illustrates representative calcium mobilization assays for use in evaluating test compounds for agonist and antagonist activity.
The culture medium is emptied from the 96 well plates and FLUO-3 AM calcium sensitive dye (Molecular Probes, Eugene, Oreg.) is added to each well (dye solution: 1 mg FLUO-3 AM, 440 μL DMSO and 440 μl 20% pluronic acid in DMSO, diluted 1:250 in Krebs-Ringer HEPES (KRH) buffer (25 mM HEPES, 5 mM KCl, 0.96 mM NaH2PO4, 1 mM MgSO4, 2 mM CaCl2, 5 mM glucose, 1 mM probenecid, pH 7.4), 50 μl diluted solution per well). Plates are covered with aluminum foil and incubated at 37° C. for 1-2 hours in an environment containing 5% CO2. […]
To measure the ability of a test compound to agonize or antagonize a calcium mobilization response in cells expressing capsaicin receptors to capsaicin or other vanilloid agonist, the EC50 of the agonist capsaicin is first determined. […] Capsaicin-induced calcium mobilization is monitored using either FLUOROSKAN ASCENT (Labsystems; Franklin, Mass.) or FLIPR (fluorometric imaging plate reader system; Molecular Devices, Sunnyvale, Calif.) instruments. […] In this equation, y is the maximum fluorescence signal, x is the concentration of the agonist or antagonist (in this case, capsaicin), a is the Emax, b corresponds to the EC50 value and c is the Hill coefficient. […]

VR, sequence (Q8NER1 whole entry): as above

| EC90 [2] | Structure (SMILES) | Ki [1] |
| --- | --- | --- |
| – | Cl.Cl.Cl.Cl.Cl.Cl.N.N.N.N.N.N.N.N.N.N.N.N.N.N.[O-2].[O-2].[Ru+3].[Ru+3].[Ru+4] [ruthenium red] | ≥ 140000 nM |
| ~100 nM | COc1cc(CNC(=O)CCCC/C=C/C(C)C)ccc1O [capsaicin] | – |
